Reference: the NIST ThermoML archive (doi:10.1016/j.jct.2004.12.006)
Numbers after ± are expanded uncertainties.

Experiments:
[1] = Crystal; DTA
[2] = Molar enthalpy of transition or fusion; conditions: Crystal; DSC

Cl.Cl.Fc1ccc([C@@H]2CCNC[C@H]2COc2ccc3c(c2)OCO3)cc1.Fc1ccc([C@@H]2CCNC[C@H]2COc2ccc3c(c2)OCO3)cc1.O [paroxetine hydrochloride hemihydrate]
Normal melting temperature [1]: 126.7 ± 0.7 °C | Molar enthalpy of transition or fusion [2]: 8.12 ± 0.167 kcal/mol
